Experimental data published in paper PMC4877006, “From Binding-Induced Dynamic Effects in SH3 Structures to Evolutionary Conserved Sectors” (PLoS Computational Biology, 2016).

Legend:
Set-up in all cases: species or system chicken
c-Src R73E (SH3 domain) = biological target: T1, c-Src R73E (SH3 domain) (Gallus gallus, UniProt P00523, Q128E); assay: ITC binding of peptide RLP2 to c-Src SH3 R73E; settings: 25 °C
T1 construct: The plasmid pET15b containing the chicken c-Src-SH3 domain gene; made in house
Procedure: (§1) Differential Scanning Calorimetry (DSC) was used to evaluate the effect of the mutation on the conformational equilibrium and stability of the protein. Isothermal Titration Calorimetry (ITC) measured the binding energetics of all mutants to the RLP2 ligand at 25°C. The results for the 15 mutants studied are summarized in Figs 1D, S1 and S2, as well as S3 and S4 Tables.
(§2) The plasmid pET15b containing the chicken c-Src-SH3 domain gene was a generous gift from Dr. E. Freire (Johns Hopkins University). The genes encoding for the c-Src-SH3 mutants were obtained by site directed mutagenesis using the QuickChange Site-Directed-Mutagenesis Kit (Stratagene) taking the WT c-Src-SH3 plasmid as template or purchased from Top Gene Technologies, Canada. WT and mutants of c-Src-SH3 domain were expressed and purified as previously described for the wild type protein [68]. The peptide RLP2 (Ac-RALPPLPRY-NH2) was bought from Peptide 2.0 (Piscataway, USA) and JPT (Berlin, Germany) with a purity > 95%. Protein concentration was determined by absorbance at 280 nm using an extinction coefficient of 16500 M^-1·cm^-1. Peptide concentration was determined by absorbance at 274 nm using an extinction coefficient of 1400 M^-1·cm^-1.
(§3) Isothermal titration calorimetry was performed using a high-precision VP titration calorimetric system (Microcal Inc., Northampton, MA) as previously described. […] Titrations were made using a profile of injection volumes from 3 μL to 20 μL to define the titration curve more clearly. The heat produced by the binding reaction between the Src-SH3 domain and the peptide ligand was calculated as the difference between the heat of reaction and the corresponding heat of dilution, as obtained from independent titrations of the peptide ligand into the buffer. The resulting binding isotherms were analyzed by non-linear least-square fittings of the experimental data to a model corresponding to a single set of identical sites, as described before.
(§4) Supplementary file pcbi.1004938.s008.doc: S3 Table Analysis of Src SH3 binding affinities through ITC. Thermodynamic binding affinity to peptide RLP2. A * indicates experiment made by fluorescence titration only. (DOC) Click here for additional data file.

c-Src F34I (SH3 domain) = biological target: T2, c-Src F34I (SH3 domain) (Gallus gallus, UniProt P00523, F102I/Q128R); assay: ITC binding of peptide RLP2 to c-Src SH3 F34I; settings: 25 °C
T2 construct: The plasmid pET15b containing the chicken c-Src-SH3 domain gene; made in house
Procedure: as §1, §2, §3, §4

c-Src L40V (SH3 domain) = assay: ITC binding of peptide RLP2 to c-Src SH3 L40V; settings: 25 °C
Procedure: as §1, §2, §3, §4

c-Src F18W (SH3 domain) = biological target: T3, c-Src F18W (SH3 domain) (Gallus gallus, UniProt P00523, F86W); assay: ITC binding of peptide RLP2 to c-Src SH3 F18W; settings: 25 °C
T3 construct: The plasmid pET15b containing the chicken c-Src-SH3 domain gene; made in house
Procedure: as §1, §2, §3, §4

c-Src S26A (SH3 domain) = assay: ITC binding of peptide RLP2 to c-Src SH3 S26A; settings: 25 °C
Procedure: as §1, §2, §3, §4

c- Src W56L (SH3 domain) = biological target: T4, c- Src W56L (SH3 domain) (Gallus gallus, UniProt P00523, Q128R/W119L); assay: ITC binding of peptide RLP2 to c-Src SH3 W56L; settings: 25 °C
T4 construct: The plasmid pET15b containing the chicken c-Src-SH3 domain gene; made in house
Procedure: as §1, §2, §3, §4

c-Src N45S (SH3 domain) = biological target: T5, c-Src N45S (SH3 domain) (Gallus gallus, UniProt P00523, N113S); assay: ITC binding of peptide RLP2 to c-Src SH3 N45S; settings: 25 °C
T5 construct: The plasmid pET15b containing the chicken c-Src-SH3 domain gene; made in house
Procedure: as §1, §2, §3, §4

c-Src L32V (SH3 domain) = biological target: T6, c-Src L32V (SH3 domain) (Gallus gallus, UniProt P00523, L100V/Q128R); assay: Fluorescence titration binding of peptide RLP2 to c-Src SH3 L32V; settings: fluorescence titration only, 25 °C, L32V relative to wt
T6 construct: The plasmid pET15b containing the chicken c-Src-SH3 domain gene; made in house
Source text: as §2, §4

[1] = binding of RLP2, R73E relative to wt
[2] = binding of RLP2, F34I relative to wt
[3] = binding of RLP2, L40V relative to wt
[4] = binding of RLP2, F18W relative to wt
[5] = binding of RLP2, S26A relative to wt
[6] = binding of RLP2, W56L relative to wt
[7] = binding of RLP2, N45S relative to wt

∆∆Gb (25 ºC) (c-Src R73E (SH3 domain); [1]): -0.24 ± 0.04 kcal/mol
∆∆Hb (25 ºC) (c-Src R73E (SH3 domain); [1]): -0.1 ± 0.3 kcal/mol
∆Gb (25 ºC) (c-Src R73E (SH3 domain); ITC, binding of RLP2, R73E): -6.87 ± 0.03 kcal/mol
∆Hb (25 ºC) (c-Src R73E (SH3 domain); ITC, binding of RLP2, R73E): -14.3 ± 0.2 kcal/mol
Kd (c-Src R73E (SH3 domain); ITC, RLP2 about 2 mM titrated into SH3 (50-122 μM), R73E (control), read-out: Kd (25 ºC)): 9.3 ± 0.5 µM
∆∆Gb (25 ºC) (c-Src F34I (SH3 domain); [2]): 0.79 ± 0.03 kcal/mol
∆∆Hb (25 ºC) (c-Src F34I (SH3 domain); [2]): 0.6 ± 0.3 kcal/mol
∆Gb (25 ºC) (c-Src F34I (SH3 domain); ITC, binding of RLP2, F34I): -5.84 ± 0.01 kcal/mol
∆Hb (25 ºC) (c-Src F34I (SH3 domain); ITC, binding of RLP2, F34I): -13.6 ± 0.3 kcal/mol
Kd (c-Src F34I (SH3 domain); ITC, RLP2 about 2 mM titrated into SH3 (50-122 μM), F34I, read-out: Kd (25 ºC)): 52.6 ± 1.2 µM
∆∆Gb (25 ºC) (c-Src L40V (SH3 domain); [3]): 0.24 ± 0.04 kcal/mol
∆∆Hb (25 ºC) (c-Src L40V (SH3 domain); [3]): -0.6 ± 0.3 kcal/mol
∆Gb (25 ºC) (c-Src L40V (SH3 domain); ITC, binding of RLP2, L40V): -6.39 ± 0.02 kcal/mol
∆Hb (25 ºC) (c-Src L40V (SH3 domain); ITC, binding of RLP2, L40V): -14.8 ± 0.2 kcal/mol
Kd (c-Src L40V (SH3 domain); ITC, RLP2 about 2 mM titrated into SH3 (50-122 μM), L40V, read-out: Kd (25 ºC)): 20.5 ± 0.6 µM
∆∆Gb (25 ºC) (c-Src F18W (SH3 domain); [4]): 0.23 ± 0.03 kcal/mol
∆∆Hb (25 ºC) (c-Src F18W (SH3 domain); [4]): 1.2 ± 0.2 kcal/mol
∆Gb (25 ºC) (c-Src F18W (SH3 domain); ITC, binding of RLP2, F18W): -6.40 ± 0.01 kcal/mol
∆Hb (25 ºC) (c-Src F18W (SH3 domain); ITC, binding of RLP2, F18W): -13.0 ± 0.1 kcal/mol
Kd (c-Src F18W (SH3 domain); ITC, RLP2 about 2 mM titrated into SH3 (50-122 μM), F18W, read-out: Kd (25 ºC)): 20.2 ± 0.3 µM
∆∆Gb (25 ºC) (c-Src S26A (SH3 domain); [5]): 0.18 ± 0.06 kcal/mol
∆∆Hb (25 ºC) (c-Src S26A (SH3 domain); [5]): 0.4 ± 0.5 kcal/mol
∆Gb (25 ºC) (c-Src S26A (SH3 domain); ITC, binding of RLP2, S26A): -6.45 ± 0.05 kcal/mol
∆Hb (25 ºC) (c-Src S26A (SH3 domain); ITC, binding of RLP2, S26A): -13.8 ± 0.5 kcal/mol
Kd (c-Src S26A (SH3 domain); ITC, RLP2 about 2 mM titrated into SH3 (50-122 μM), S26A (control), read-out: Kd (25 ºC)): 18.8 ± 1.4 µM
∆∆Gb (25 ºC) (c- Src W56L (SH3 domain); [6]): 0.98 ± 0.03 kcal/mol
∆∆Hb (25 ºC) (c- Src W56L (SH3 domain); [6]): 2.4 ± 0.2 kcal/mol
∆Gb (25 ºC) (c- Src W56L (SH3 domain); ITC, binding of RLP2, W56L): -5.65 ± 0.01 kcal/mol
∆Hb (25 ºC) (c- Src W56L (SH3 domain); ITC, binding of RLP2, W56L): -11.8 ± 0.1 kcal/mol
Kd (c- Src W56L (SH3 domain); ITC, RLP2 about 2 mM titrated into SH3 (50-122 μM), W56L, read-out: Kd (25 ºC)): 72.5 ± 1.4 µM
∆∆Gb (25 ºC) (c-Src N45S (SH3 domain); [7]): 0.19 ± 0.04 kcal/mol
∆∆Hb (25 ºC) (c-Src N45S (SH3 domain); [7]): 0.1 ± 0.3 kcal/mol
∆Gb (25 ºC) (c-Src N45S (SH3 domain); ITC, binding of RLP2, N45S): -6.44 ± 0.02 kcal/mol
∆Hb (25 ºC) (c-Src N45S (SH3 domain); ITC, binding of RLP2, N45S): -14.1 ± 0.2 kcal/mol
Kd (c-Src N45S (SH3 domain); ITC, RLP2 about 2 mM titrated into SH3 (50-122 μM), N45S, read-out: Kd (25 ºC)): 19 ± 0.6 µM
∆∆Gb (25 ºC) (c-Src L32V (SH3 domain)): 1.76 ± 0.07 kcal/mol
Substance: Ac-RALPPLPRY-NH2 [RLP2, Ac-RALPPLPRY-NH2]
